Values of other authors as cited in patent publication US8389009B2, “Spatial control of signal transduction” (Wisconsin Alumni Research Foundation, priority 2005, dated 2013).
Where two headings read alike, the source gives them in different places.

T1: VEGF (Homo sapiens, UniProt P15692)
T1 sequence (P15692 27-191 isoform P15692-4): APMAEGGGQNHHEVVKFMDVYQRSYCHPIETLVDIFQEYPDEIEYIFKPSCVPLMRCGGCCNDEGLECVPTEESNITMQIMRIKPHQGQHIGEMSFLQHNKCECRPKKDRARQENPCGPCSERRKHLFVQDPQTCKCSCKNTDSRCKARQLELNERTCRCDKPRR


How the values were obtained:
VEGF [1] = target: T1, VEGF; conditions: handle for VEGF; literature value; read-out: Affinity (KD)
IGF-1 [2] = target: T2, IGF-1 (Homo sapiens, UniProt P05019); conditions: handle for IGF-1; literature value; read-out: Affinity (KD)
IGF-1 [3] = target: T2, IGF-1; conditions: natural receptor binding IGF-1, according to previous studies; read-out: affinity (dissociation constant KD)
VEGF [4] = target: T1, VEGF; conditions: natural receptor binding VEGF, according to previous studies; read-out: affinity (dissociation constant KD)

T2 sequence (P05019 49-118 limits assumed): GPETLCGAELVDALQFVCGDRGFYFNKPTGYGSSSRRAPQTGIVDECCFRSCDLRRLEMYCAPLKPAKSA

| Molecule | Kd (VEGF [1]) [nM] | other results |
| --- | --- | --- |
| AAGAAACGGAAGAAUUGGAGACACGCUCGU (chemistry not given here) [SEQ ID NO: 2] | 1 | – |
| AGUUUUGGAAGAAUUGGAUGUUCCGAUCGU (chemistry not given here) [SEQ ID NO: 3] | 10 | – |
| AUGCAGUUUGAGAAGUCGCGGAU [SEQ ID NO: 1] | 0.01 | – |
| EELWCFDGPRAWVCGYVK [SEQ ID NO: 7] | 10000 | – |
| GGAAGAAUUGGUCAUCGUCGUCUCCGCCUCCC (chemistry not given here) [SEQ ID NO: 4] | 100 | – |
| HDCFASVEALRRCMY [SEQ ID NO: 9] | – | Kd (IGF-1 [2]): 500 nM |
| RNCFESVAALRRCMY [SEQ ID NO: 8] | – | Kd (IGF-1 [2]): 100 nM |
| VEPNCDIHVMWEWECFERL [SEQ ID NO: 5] | 200 | – |
| VTCAADALGFLYCWE [SEQ ID NO: 10] | – | Kd (IGF-1 [2]): 2000 nM |
| natural IGF-1 receptor: natural cell surface receptor that binds IGF-1 | – | Kd (IGF-1 [3]): ~0.16 nM |
| natural VEGF receptor 1: natural cell surface receptor that binds VEGF (protein, UniProt P17948 27-1338, looked up) Vascular endothelial growth …: SKLKDPELSLKGTQHIMQAGQTLHLQCRGEAAHKWSLPEMVSKESERLSITKSACGRNGKQFCSTLTLNTAQANHTGFYSCKYLAVPTSKKKETESAIYIFISDTGRPFVEMYSEIPEIIHMTEGRELVIPCRVTSPNITVTLKKFPLDTLIPDGKRIIWDSRKGFIISNATYKEIGLLTCEATVNGHLYKTNYLTHRQTNTIIDVQISTPRPVKLLRGHTLVLNCTATTPLNTRVQMTWSYPDEKNKRASVRRRIDQSNSHANIFYSVLTIDKMQNKDKGLYTCRVRSGPSFKSVNTSVHIYDKAFITVKHRKQQVLETVAGKRSYRLSMKVKAFPSPEVVWLKDGLPATEKSARYLTRGYSLIIKDVTEEDAGNYTILLSIKQSNVFKNLTATLIVNVKPQIYEKAVSSFPDPALYPLGSRQILTCTAYGIPQPTIKWFWHPCNHNHSEARCDFCSNNEESFILDADSNMGNRIESITQRMAIIEGKNKMASTLVVADSRISGIYICIASNKVGTVGRNISFYITDVPNGFHVNLEKMPTEGEDLKLSCTVNKFLYRDVTWILLRTVNNRTMHYSISKQKMAITKEHSITLNLTIMNVSLQDSGTYACRARNVYTGEEILQKKEITIRDQEAPYLLRNLSDHTVAISSSTTLDCHANGVPEPQITWFKNNHKIQQEPGIILGPGSSTLFIERVTEEDEGVYHCKATNQKGSVESSAYLTVQGTSDKSNLELITLTCTCVAATLFWLLLTLFIRKMKRSSSEIKTDYLSIIMDPDEVPLDEQCERLPYDASKWEFARERLKLGKSLGRGAFGKVVQASAFGIKKSPTCRTVAVKMLKEGATASEYKALMTELKILTHIGHHLNVVNLLGACTKQGGPLMVIVEYCKYGNLSNYLKSKRDLFFLNKDAALHMEPKKEKMEPGLEQGKKPRLDSVTSSESFASSGFQEDKSLSDVEEEEDSDGFYKEPITMEDLISYSFQVARGMEFLSSRKCIHRDLAARNILLSENNVVKICDFGLARDIYKNPDYVRKGDTRLPLKWMAPESIFDKIYSTKSDVWSYGVLLWEIFSLGGSPYPGVQMDEDFCSRLREGMRMRAPEYSTPEIYQIMLDCWHRDPKERPRFAELVEKLGDLLQANVQQDGKDYIPINAILTGNSGFTYSTPAFSEDFFKESISAPKFNSGSSDDVRYVNAFKFMSLERIKTFEELLPNATSMFDDYQGDSSTLLASPMLKRFTWTDSKPKASLKIDLRVTSKSKESGLSDVSRPSFCHSSCGHVSEGKRRFTYDHAELERKIACCSPPPDYNSVVLYSTPPI | – | Kd (VEGF [4]): ~7.5 pM |
